Activity calls are given as the source filed them. The rule behind the calls is not given here.
Experiments:
[1] = Cytotoxicity against human SPC-A1 cells overexpressing maspin protein measured after 72 hrs by Celltiter-Glo assay; format: functional, cell-based; conditions: SPCA1, 72 h
[2] = system: HuCCT-1; assay: Cytotoxicity against human HuCCT1 cells measured after 72 hrs by Celltiter-Glo assay; format: functional, cell-based; conditions: HuCCT-1, 72 h
[3] = system: 143B; assay: Cytotoxicity against human 143B cells measured after 72 hrs by Celltiter-Glo assay; format: functional, cell-based
[4] = system: A-431; assay: Cytotoxicity against human A431 cells measured after 72 hrs by Celltiter-Glo assay; format: functional, cell-based; conditions: A-431, 72 h
[5] = system: U-87 MG; assay: Cytotoxicity against human U87 cells measured after 72 hrs by Celltiter-Glo assay; format: functional, cell-based, U-87MG ATCC
[6] = system: A673; assay: Cytotoxicity against human A673 cells measured after 72 hrs by Celltiter-Glo assay; format: functional, cell-based; conditions: A673, 72 h
[7] = system: HL-60; assay: Cytotoxicity against human HL60 cells measured after 72 hrs by Celltiter-Glo assay; format: functional, cell-based; conditions: HL-60, 72 h
[8] = system: MV4-11; assay: Cytotoxicity against human MV4-11 cells measured after 72 hrs by Celltiter-Glo assay; format: functional, cell-based; conditions: MV4-11, 72 h
[9] = system: MDA-MB-231; assay: Cytotoxicity against human MDA-MB-231 cells measured after 72 hrs by Celltiter-Glo assay; format: functional, cell-based; conditions: MDA-MB-231, 72 h
[10] = system: Hep 3B2; assay: Cytotoxicity against human Hep3B cells measured after 72 hrs by Celltiter-Glo assay; format: functional, cell-based
[11] = system: BT-474; assay: Cytotoxicity against human BT474 cells measured after 72 hrs by Celltiter-Glo assay; format: functional, cell-based; conditions: BT-474, 72 h
[12] = system: U-251; assay: Cytotoxicity against human U251 cells measured after 72 hrs by Celltiter-Glo assay; format: functional, cell-based; conditions: U-251, 72 h
[13] = system: MCF7; assay: Cytotoxicity against human MCF7 cells measured after 72 hrs by Celltiter-Glo assay; format: functional, cell-based; conditions: MCF7, 72 h
[14] = system: MDA-MB-468; assay: Cytotoxicity against human MDA-MB-468 cells measured after 72 hrs by Celltiter-Glo assay; format: functional, cell-based; conditions: MDA-MB-468, 72 h
[15] = system: KARPAS-299; assay: Cytotoxicity against human KARPAS299 cells measured after 72 hrs by Celltiter-Glo assay; format: functional, cell-based; conditions: KARPAS-299, 72 h
[16] = system: HCC1954; assay: Cytotoxicity against human HCC1954 cells measured after 72 hrs by Celltiter-Glo assay; format: functional, cell-based; conditions: HCC1954, 72 h
[17] = system: NCI-N87; assay: Cytotoxicity against human NCI-N87 cells measured after 72 hrs by Celltiter-Glo assay; format: functional, cell-based; conditions: NCI-N87, 72 h
[18] = system: DU-145; assay: Cytotoxicity against human DU145 cells measured after 72 hrs by Celltiter-Glo assay; format: functional, cell-based; conditions: DU-145, 72 h
[19] = system: MKN-45; assay: Cytotoxicity against human MKN45 cells measured after 72 hrs by Celltiter-Glo assay; format: functional, cell-based; conditions: MKN-45, 72 h
[20] = system: B16-F10; assay: Cytotoxicity against mouse B16/F10 cells measured after 72 hrs by Celltiter-Glo assay; format: functional, cell-based; conditions: B16-F10, 72 h
[21] = system: A549; assay: Cytotoxicity against human A549 cells measured after 72 hrs by Celltiter-Glo assay; format: functional, cell-based; conditions: A549, 72 h
[22] = system: HCT-116; assay: Cytotoxicity against human HCT116 cells measured after 72 hrs by Celltiter-Glo assay; format: functional, cell-based; conditions: HCT-116, 72 h
[23] = system: NCI-H2228; assay: Cytotoxicity against human NCI-H2228 cells measured after 72 hrs by Celltiter-Glo assay; format: functional, cell-based; conditions: NCI-H2228, 72 h
[24] = system: NCI-H1299; assay: Cytotoxicity against human H1299 cells measured after 72 hrs by Celltiter-Glo assay; format: functional, cell-based; conditions: NCI-H1299, 72 h
[25] = system: NCI-H1975; assay: Cytotoxicity against human NCI-H1975 cells harboring EGFR double L858R/T790M mutant measured after 72 hrs by Celltiter-Glo assay; format: functional, cell-based; conditions: NCI-H1975, 72 h
[26] = system: K562; assay: Cytotoxicity against human K562 cells measured after 72 hrs by Celltiter-Glo assay; format: functional, cell-based; conditions: K562, 72 h
[27] = Cytotoxicity against human P6C cells assessed as inhibition of cell growth measured after 72 hrs by MTT assay; format: functional, cell-based
[28] = system: A549; assay: Cytotoxicity against human A549 cells assessed as inhibition of cell growth measured after 72 hrs by MTT assay; format: functional, cell-based; conditions: A549, 72 h
[29] = system: L02; assay: Cytotoxicity against human LO2 cells assessed as inhibition of cell growth measured after 72 hrs by MTT assay; format: cell-based; conditions: L02, 72 h
[30] = system: MCF7; assay: Cytotoxicity against human MCF7 cells assessed as inhibition of cell growth measured after 72 hrs by MTT assay; format: functional, cell-based; conditions: MCF7, 72 h
[31] = system: K562; assay: Cytotoxicity against human K562 cells assessed as inhibition of cell growth measured after 72 hrs by CCK-8 assay; format: functional, cell-based; conditions: K562, 72 h
[32] = system: HeLa; assay: Cytotoxicity against human HeLa cells; format: functional, cell-based

COc1ccc(-c2c3c(c(-c4ccc(OC)cc4)c(O)c2OC)SCC(=O)N3)cc1
IC50 [1]: > 100 µM | IC50 [2]: > 100000 nM | IC50 [3]: > 100 µM | IC50 [4]: > 100 µM | IC50 [5]: > 100 µM | IC50 [6]: > 100 µM | IC50 [7]: > 100000 nM | IC50 [8]: > 100000 nM | IC50 [9]: > 100000 nM | IC50 [10]: > 100 µM | IC50 [11]: > 100 µM | IC50 [12]: > 100 µM | IC50 [13]: > 100 µM | IC50 [14]: > 100000 nM | IC50 [15]: > 100 µM | IC50 [16]: > 100000 nM | IC50 [17]: > 100000 nM | IC50 [18]: > 100000 nM | IC50 [19]: > 100 µM | IC50 [20]: > 100000 nM | IC50 [21]: > 100 µM | IC50 [22]: > 100 µM | IC50 [23]: > 100000 nM | IC50 [24]: > 100000 nM | IC50 [25]: > 100 µM | IC50 [26]: > 100 µM

COc1ccc(-c2c(OC)c(O)c(-c3ccc(OC)cc3)c3scnc23)cc1
IC50 [27]: 9.4 µM | IC50 [28]: 5.1 µM | IC50 [29]: 17 µM | IC50 [30]: 6 µM | IC50 [31]: 770 nM

COC1=C(c2ccc(OC)cc2)C(=O)C=C(c2ccc(OC)cc2)C1=O
IC50 [1]: 2 µM | IC50 [2]: 200 nM | IC50 [3]: 5 µM | IC50 [4]: > 100 µM | IC50 [5]: > 100 µM | IC50 [6]: 0.76 µM | IC50 [7]: 170 nM | IC50 [8]: 160 nM | IC50 [9]: 2000 nM | IC50 [10]: > 100 µM | IC50 [11]: 3.6 µM | IC50 [12]: 4.7 µM | IC50 [13]: > 100 µM | IC50 [14]: 1100 nM | IC50 [15]: > 100 µM | IC50 [16]: 480 nM | IC50 [17]: 1000 nM | Activity [32]: Active | IC50 [18]: 520 nM | IC50 [19]: 0.49 µM | IC50 [20]: 760 nM | IC50 [21]: 0.48 µM | IC50 [22]: 1.9 µM | IC50 [23]: 940 nM | IC50 [24]: 720 nM | IC50 [25]: 3.1 µM | IC50 [26]: 4.8 µM

COc1ccc(-c2cc(O)c(-c3ccc(OC)cc3)c(OC)c2O)cc1
IC50 [27]: > 40 µM | IC50 [28]: > 40 µM | IC50 [29]: > 40 µM | IC50 [30]: 30 µM | IC50 [31]: > 40000 nM

COc1ccc(-c2c(OC)c(O)c(-c3ccc(OC)cc3)c3sc(CO)nc23)cc1
IC50 [1]: > 100 µM | IC50 [2]: > 100000 nM | IC50 [3]: 5.5 µM | IC50 [4]: 4.6 µM | IC50 [5]: > 100 µM | IC50 [6]: > 100 µM | IC50 [7]: 380 nM | IC50 [8]: 4000 nM | IC50 [9]: > 100000 nM | IC50 [10]: > 100 µM | IC50 [11]: 6 µM | IC50 [12]: > 100 µM | IC50 [13]: 18 µM | IC50 [14]: 2800 nM | IC50 [15]: > 100 µM | IC50 [16]: 100 nM | IC50 [17]: > 100000 nM | IC50 [18]: > 100000 nM | IC50 [19]: > 100 µM | IC50 [20]: > 100000 nM | IC50 [21]: 7.8 µM | IC50 [22]: > 100 µM | IC50 [23]: 1700 nM | IC50 [24]: > 100000 nM | IC50 [25]: > 100 µM | IC50 [26]: 9 µM

COc1ccc(-c2cc(O)c(-c3ccc(OC)cc3)c(OC)c2OC)cc1
IC50 [1]: 9.8 µM | IC50 [2]: > 100000 nM | IC50 [3]: 7.7 µM | IC50 [4]: > 100 µM | IC50 [5]: > 100 µM | IC50 [6]: 8.9 µM | IC50 [7]: 5000 nM | IC50 [8]: 770 nM | IC50 [9]: 2000 nM | IC50 [10]: > 100 µM | IC50 [11]: > 100 µM | IC50 [12]: > 100 µM | IC50 [13]: 17 µM | IC50 [14]: 670 nM | IC50 [15]: > 100 µM | IC50 [16]: 2000 nM | IC50 [17]: > 100000 nM | IC50 [18]: 1000 nM | IC50 [19]: 12 µM | IC50 [20]: > 100000 nM | IC50 [21]: 9.7 µM | IC50 [22]: > 100 µM | IC50 [23]: 5000 nM | IC50 [24]: > 100000 nM | IC50 [25]: 4.4 µM | IC50 [26]: 8.9 µM

COc1cccc2c1C(=O)c1c(O)c3c(c(O)c1C2=O)C[C@@](O)(C(=O)CO)C[C@@H]3O[C@H]1C[C@H](N)[C@H](O)[C@H](C)O1 [DOXORUBICIN]
IC50 [1]: 0.18 µM | IC50 [2]: 48 nM | IC50 [3]: 0.1 µM | IC50 [4]: 0.16 µM | IC50 [27]: 0.71 µM | IC50 [5]: 0.11 µM | IC50 [6]: 0.1 µM | IC50 [28]: 0.58 µM | IC50 [29]: 0.7 µM | IC50 [8]: 160 nM | IC50 [10]: 16 µM | IC50 [11]: 1.9 µM | IC50 [12]: 0.17 µM | IC50 [14]: > 100000 nM | IC50 [15]: 0.38 µM | IC50 [16]: 45 nM | IC50 [17]: 47 nM | IC50 [18]: 51 nM | IC50 [19]: 0.19 µM | IC50 [20]: 16 nM | IC50 [31]: 330 nM | IC50 [21]: 0.11 µM | IC50 [23]: 97 nM | IC50 [24]: 500 nM | IC50 [25]: 0.087 µM | IC50 [26]: 0.021 µM

Source: ChEMBL document CHEMBL4334532, “Cytotoxic p-Terphenyls from a Marine-Derived Nocardiopsis Species” (J Nat Prod, 2019)
